Laboratory results from patent US20230141533A1, “LACTONE COMPOUND” (FUJIFILM Corporation, priority 2021, published 2023).
“And” between values parts separate entries of the source, which are not always exact repeats. Equal entries are not always repeated.

Tests used:
[1] = Water stability under applied voltage (square wave voltammetry, oxidation potential); assay type: physicochemical; conditions: for Oxidation potential: SWV, 0.5 mM in THF:water=90:10, gold electrode, Ag wire reference, ferrocene reference substance, None = no oxidation potential, more stable than 1.3 V (THF oxidized); for water stability under applied voltage (in words): judged from whether an oxidation potential is observed
Procedure: Water Stability Under Applied Voltage
Water stability against voltage of each of the compounds (1) to (9) synthesized in Examples and Comparative Examples was evaluated by the measurement shown below.
Measurement: square wave voltammetry (SWV)
Action electrode: gold electrode
Counter electrode: platinum black electrode
Reference electrode: Ag wire
Supporting electrolyte: tetrabutylammonium hexafluorophosphate (manufactured by FUJIFILM Wako Pure Chemical Corporation)
Reference substance: ferrocene
The compound (1) was adjusted to a concentration of 0.5 mM using a mixed solvent of THF:water=90:10, and nitrogen bubbling was carried out for 10 minutes to produce a measurement sample.
Next, a measurement was performed under the above-described analysis conditions to observe an oxidation potential.
Oxidation potentials of the compounds (2) to (9) were measured under the same conditions.

[2] = Water stability over time without applied voltage (HPLC residual rate); assay type: physicochemical; conditions: for Residual rate (%): aqueous mixed solution with NIKKOL HCO-40, allowed to stand at 25° C. for 24 hours, HPLC area after 24 hours ÷ area immediately after preparation × 100; for water stability over time (in words): without applied voltage, 25° C., 24 hours, judged from residual rate
Procedure: Water Stability Over Time without Applied Voltage
To 1.0 part by mass of each of the compounds (1) to (9) synthesized in Examples and Comparative Examples, 1000 parts by mass of NIKKOL HCO-40 (Nikko Chemicals Co., Ltd.) and 10000 parts by mass of acetone were mixed.
Next, after removing the acetone using an evaporator at a temperature of 40° C., 10000 parts of water was added thereto to prepare a uniform mixed solution 1. The mixed solution 1 was allowed to stand at 25° C. for 24 hours.
Immediately after the preparation of the mixed solution 1 and after allowing the mixed solution 1 to stand for 24 hours, an HPLC measurement was carried out under the following analysis conditions, and a residual rate in the water stability test over time was calculated using the following expression.
(Area value after standing for 24 hours)÷(Area value immediately after preparation)×100=Residual rate (%)
SCL-10AVP manufactured by Shimadzu Corporation
Eluent: single eluent prepared by adding 0.2% by volume of each of acetic acid and triethylamine to a mixed solution obtained by mixing tetrahydrofuran (THF) and water at a ratio of 60:40

Row | Compound | Oxidation potential [1] | Residual rate (%) [2] [%] | water stability over time (in words) [2] | water stability under applied voltage (in words) [1]
1 | Cc1c(C)c(C)c(C2C(=O)Oc3c2cc(C(C)(C)C)cc3C(C)(C)C)c(C)c1C (stereo not drawn) [Compound (6)] | None | 10 | still deteriorated | 
2 | COc1cc(OC)c(C2C(=O)Oc3c2cc(C)cc3C(C)(C)C)c(OC)c1 (stereo not drawn) [Compound (4)] | None | 95 |  | 
3 | CCCCCCCCOc1ccc(C2C(=O)Oc3c2cc(C(C)(C)C)cc3C(C)(C)C)cc1 (stereo not drawn) [Compound (7)] | None | 0 | deteriorated | 
4 | COc1cc(OC)c(C2C(=O)Oc3c2cc(C(C)(C)C)cc3C(C)(C)C)c(OC)c1 (stereo not drawn) [Compound (2)] | None | 95 |  | 
5 | Cc1c(C(C)(C)C)cc(C(C)(C)C)c(O)c1C1C(=O)Oc2c1cc(C(C)(C)C)cc2C(C)(C)C (stereo not drawn) [Compound (8)] | 0.65 V and 1.00 V and 1.15 V | 0 |  | low
6 | CC(C)(C)c1cc(C2C(=O)Oc3c2cc(C(C)(C)C)cc3C(C)(C)C)c(O)c(C(C)(C)C)c1 (stereo not drawn) [Compound (9)] |  |  |  | low
7 | Cc1cc(C)c(C2C(=O)Oc3c2cc(C(C)(C)C)cc3C(C)(C)C)c(C)c1 (stereo not drawn) [Compound (1)] | None | 100 |  | 
8 | Cc1cc(C)c(C2C(=O)Oc3c2cc(C)cc3C(C)(C)C)c(C)c1 (stereo not drawn) [Compound (3)] | None | 90 |  | 
9 | Cc1ccc(C2C(=O)Oc3c2cc(C(C)(C)C)cc3C(C)(C)C)cc1C (stereo not drawn) [Compound (5)] | None | 0 | deteriorated | 
